# Test results from US6930088B2, “Conformationally constrained backbone cyclized somatostatin analogs” (Peptor Ltd., priority 1998, dated 2005).
# Entries after “also recorded” stand apart in the source; their conditions may differ.
# Legend:
# SSTR-1 = target: T1, SSTR-1 (Homo sapiens, UniProt P30872); test: Inhibition of 125I-Tyr11-SRIF binding to membrane preparations expressing SSTR-1; conditions: read-out: Percent inhibition of SRIF-14 binding
# T1 construct: expressed in transfected cells
# Experimental: (§1) The somatostatin analogs were tested for their potency in inhibition of the binding of ^125I-Tyr^11-SRIF (based on the method described by Raynor et. al., Molecular Pharmacology, 1993, 43, 838-844) to membrane preparations expressing the transmembranal somatostatin receptors (SSTR-1, 2, 3, 4 or 5). The receptor preparations used for these tests were either from the cloned human receptors selectively and stably expressed in Chinese Hamster Ovary (CHO) cells or from cell lines naturally expressing the SSTRs. […] The binding reactions were filtered, the filters were washed and the bound radioactivity was counted in gamma counter. Non specific binding was defined as the radioactivity remaining bound in the presence of 1 μM unlabeled SRIF-14.
# (§2) In order to validate positive signals of the binding tests, and to eliminate non-specific signals, samples of irrelevant peptides, such as GnRH, that were synthesized and handled using the same procedures, were tested in the same assays as negative control samples. These samples had no binding activity in any of the assays. Results are shown below in Tables 5 and 6 and FIG. 1.
# glucagon release = test: In-vivo effect on glucagon release; design: species or system Wistar male rats
# Experimental: In-vivo determination of the release of glucogon as a result of peptide administration was measured in Wistar male rats.
# Time course profiles for glucagon release under constant experimental conditions were measured.
# Male Wistar rats were fasted overnight. Animals were anesthetized with Nembutal (IP, 60 mg/kg). Ten minutes after anesthesia, drugs were administrated S.C. at 0.01-100 microgram/kg dose. Stimulation of glucagon secretion was performed by I.V. administration of L-arginine, 0.5 g/kg, 5 minutes before blood collection from portal vein. Hormone concentration was measured by RIA.
# [1] = In vitro biostability in renal homogenate (HPLC)
# Experimental: The assay was based on HPLC determination of peptide degradation as a function of time in renal homogenate at 37° C.
# SSTR-2 = target: T2, SSTR-2 (Homo sapiens, UniProt P30874); test: Inhibition of 125I-Tyr11-SRIF binding to membrane preparations expressing SSTR-2; conditions: read-out: Percent inhibition of SRIF-14 binding
# T2 construct: expressed in transfected cells
# T2 sequence (P30874 whole entry): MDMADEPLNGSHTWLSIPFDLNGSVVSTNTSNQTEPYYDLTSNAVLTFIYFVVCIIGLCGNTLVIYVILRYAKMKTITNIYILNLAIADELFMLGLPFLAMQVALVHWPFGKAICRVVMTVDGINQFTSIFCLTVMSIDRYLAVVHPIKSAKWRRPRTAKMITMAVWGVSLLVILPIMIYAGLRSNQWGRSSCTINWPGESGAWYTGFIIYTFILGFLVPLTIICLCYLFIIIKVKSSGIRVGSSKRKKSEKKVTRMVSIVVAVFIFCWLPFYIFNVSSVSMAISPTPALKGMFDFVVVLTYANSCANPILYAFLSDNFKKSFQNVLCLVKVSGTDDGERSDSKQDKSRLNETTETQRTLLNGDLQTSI
# Experimental: The receptor preparations used for these tests were either from the cloned human receptors selectively and stably expressed in Chinese Hamster Ovary (CHO) cells or from cell lines naturally expressing the SSTRs. […] The binding reactions were filtered, the filters were washed and the bound radioactivity was counted in gamma counter. Non specific binding was defined as the radioactivity remaining bound in the presence of 1 μM unlabeled SRIF-14.
# as §2
# [2] = test system: somatostatin receptors (SSTR-1, 2, 3, 4 or 5); test: Somatostatin receptor subtype selectivity of binding; design: species or system human; conditions: in words
# Experimental: (§3) The somatostatin analogs were tested for their potency in inhibition of the binding of ^125I-Tyr^11-SRIF (based on the method described by Raynor et. al., Molecular Pharmacology, 1993, 43, 838-844) to membrane preparations expressing the transmembranal somatostatin receptors (SSTR-1, 2, 3, 4 or 5). The receptor preparations used for these tests were either from the cloned human receptors selectively and stably expressed in Chinese Hamster Ovary (CHO) cells or from cell lines naturally expressing the SSTRs. Typically, cell membranes were homogenated in Tris buffer in the presence of protease inhibitors and incubated for 30-40 minutes with ^125I-Tyr^11-SRIF with different concentrations of the tested sample. The binding reactions were filtered, the filters were washed and the bound radioactivity was counted in gamma counter. Non specific binding was defined as the radioactivity remaining bound in the presence of 1 μM unlabeled SRIF-14.
# as §2
# [3] = Initial safety testing in rodents; type: in vivo; conditions: dose 10,000-fold higher then the efficacious dose for inhibiting Growth hormone release
# Experimental: (§4) PTR 3173 was tested in various species for its initial safety properties. Under the European Pharmacopoeia requirements for safety testing, it was declared a safe drug candidate at this stage of development.
# insulin release = test: In-vivo effect on insulin release; design: species or system Wistar male rats
# Experimental: Insulin stimulation was induced by IV bolus administration of D-glucose to overnight fasted rats.
# An in-vivo determination of insulin release as a result of peptide administration was measured in Wistar male rats. […] Time course profiles for […] release under constant experimental conditions were measured.
# Male Wistar rats were fasted overnight. Animals were anesthetized with Nembutal (IP, 60 mg/kg). Ten minutes after anesthesia, drugs were administrated S.C. at 0.01-100 microgram/kg dose 30 minutes before stimulation of insulin secretion performed by I.V. administration of 0.5 g/kg of D-glucose, 5 minutes before blood collection from abdominal Vena-cava. Hormone levels wer measured by RIA.
# [4] = Initial safety testing in dogs; type: in vivo; conditions: dose 10,000-fold higher then the efficacious dose for inhibiting Growth hormone release
# Experimental: as §4
# SSTR-4 = target: T3, SSTR-4 (Homo sapiens, UniProt P31391); test: Inhibition of 125I-Tyr11-SRIF binding to membrane preparations expressing SSTR-4; conditions: SSTR-R4, read-out: Percent inhibition of SRIF-14 binding
# T3 construct: expressed in transfected cells
# T3 sequence (P31391 whole entry): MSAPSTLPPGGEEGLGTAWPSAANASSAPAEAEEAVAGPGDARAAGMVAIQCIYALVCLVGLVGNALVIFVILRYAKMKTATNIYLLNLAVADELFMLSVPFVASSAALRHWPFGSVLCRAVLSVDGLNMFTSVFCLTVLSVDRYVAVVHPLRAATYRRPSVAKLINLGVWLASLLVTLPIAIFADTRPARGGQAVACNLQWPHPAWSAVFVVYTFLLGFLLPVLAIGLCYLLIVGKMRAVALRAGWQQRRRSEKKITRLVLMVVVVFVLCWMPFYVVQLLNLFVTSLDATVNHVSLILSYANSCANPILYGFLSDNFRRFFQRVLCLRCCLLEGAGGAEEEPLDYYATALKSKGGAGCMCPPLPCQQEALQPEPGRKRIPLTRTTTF
# Experimental: as §3, §2
# [5] = test system: Chromogranin A release from BON-1; test: Inhibition of Chromogranin A release from BON-1; type: cell-based; conditions: human Carcinoid cell line BON-1
# Text: Assessment of Chromogranin A release from BON-1 is an important assay aimed at identifying potential anti Carcinoid drugs. Chromagranin A is one of the principal mediators in degranulation of tumor granules, which secrete excessive amounts of vasoactive substances from Carcinoid tumors.
# SSTR-3 = target: T4, SSTR-3 (Homo sapiens, UniProt P32745); test: Inhibition of 125I-Tyr11-SRIF binding to membrane preparations expressing SSTR-3; conditions: read-out: Percent inhibition of SRIF-14 binding
# T4 construct: expressed in transfected cells
# T4 sequence (P32745 whole entry): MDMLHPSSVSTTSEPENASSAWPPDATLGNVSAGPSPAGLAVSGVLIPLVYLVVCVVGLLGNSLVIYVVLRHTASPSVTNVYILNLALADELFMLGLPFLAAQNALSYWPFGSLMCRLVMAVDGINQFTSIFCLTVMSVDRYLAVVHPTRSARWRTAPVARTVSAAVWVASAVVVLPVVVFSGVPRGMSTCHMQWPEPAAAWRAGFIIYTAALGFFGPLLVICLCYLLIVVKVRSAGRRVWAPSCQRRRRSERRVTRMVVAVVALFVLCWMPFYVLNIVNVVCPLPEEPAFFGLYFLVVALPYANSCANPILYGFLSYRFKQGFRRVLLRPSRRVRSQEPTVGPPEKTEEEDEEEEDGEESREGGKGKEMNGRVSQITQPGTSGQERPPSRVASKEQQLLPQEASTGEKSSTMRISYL
# Experimental: as §1, §2
# [6] = Metabolic bio-stability against degradation by enzyme mixtures; type: in vitro ADME; conditions: in words; renal homogenate, rat liver homogenate and human serum
# [7] = Table 4, physiological selectivity
# [8] = kidney or brush border membranes
# T1 sequence (P30872 whole entry): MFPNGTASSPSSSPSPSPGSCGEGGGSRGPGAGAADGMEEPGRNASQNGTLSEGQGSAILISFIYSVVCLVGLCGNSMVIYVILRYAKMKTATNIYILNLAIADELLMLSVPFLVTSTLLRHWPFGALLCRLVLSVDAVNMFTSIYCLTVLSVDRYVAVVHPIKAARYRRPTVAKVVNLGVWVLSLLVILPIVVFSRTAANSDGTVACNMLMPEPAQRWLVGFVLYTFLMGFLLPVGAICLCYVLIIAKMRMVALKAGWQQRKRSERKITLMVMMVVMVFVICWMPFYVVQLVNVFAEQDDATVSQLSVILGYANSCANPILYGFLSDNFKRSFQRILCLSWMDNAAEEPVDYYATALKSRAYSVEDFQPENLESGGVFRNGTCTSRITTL
smiles,measurement,setting,value
"C[C@@H](O)[C@@H]1NC(=O)[C@H](CCCCN)NC(=O)[C@@H](Cc2c[nH]c3ccccc23)NC(=O)[C@H](Cc2c[nH]c3ccccc23)NC(=O)[C@H](Cc2ccccc2)NC(=O)CCCNC(=O)CCCN(CC(N)=O)C(=O)[C@H](Cc2ccccc2)NC1=O [PTR 3173, GABA*-Phe-Trp-(D)Trp-Lys-Thr-Phe-Gly(C3)-X]",inhibition at 10 pM,SSTR-1,0%
same,inhibition at 0.0001 µM,SSTR-1,0%
same,inhibition at 0.001 µM,SSTR-1,0%
same,inhibition at 0.01 µM,SSTR-1,0%
same,inhibition at 0.1 µM,SSTR-1,5%
same,inhibition at 1 µM,SSTR-1,15%
same,effect on glucagon levels compare to control,"glucagon release; 100 micrograms per kilogram, FIG. 4",statistically significant difference in glucagon levels compare to control
same,Glucagon ID50,glucagon release; [7],>0.1 mg/kg
same,effect on glucagon (general statement),"glucagon release; in words, no dose stated",considerably lower affect on the release of glucagon than Octreotide; also recorded: much less activity on glucagon
same,GH Glucagon,"glucagon release; ratio of ID50 values, Table 4",">1,000"
same,Percent of intact molecule after incubation in renal homogenate,"[1]; Time 0 hrs, 37° C.",100%
same,remaining at 1 h,[1]; [8],100%
same,remaining at 3 h,[1]; [8],100%
same,remaining at 24 h,[1]; [8],100%
same,inhibition at 10 pM,SSTR-2,15%
same,inhibition at 0.0001 µM,SSTR-2,30%
same,inhibition at 0.001 µM,SSTR-2,42%
same,inhibition at 0.01 µM,SSTR-2,80%
same,inhibition at 0.1 µM,SSTR-2,95%
same,inhibition at 1 µM,SSTR-2,96%
same,somatostatin receptor subtype selectivity,[2],selective for receptors 2 and 5; also recorded: improved selectivity of binding to the SST receptor subtype SST-R2 and SST-R5
same,somatostatin receptor subtype selectivity,[2]; listed as PTR-3173,SST-R2+SST-R5
same,toxicity signs,[3],No toxicity signs
same,effect on insulin release,"insulin release; 100 micrograms per kilogram, D-glucose stimulation, FIG. 5a",inactive on insulin
same,Insulin ID50,insulin release; [7],>1 mg/kg
same,effect on insulin release,"insulin release; dose of up to 1 milligram per kilogram, FIG. 5b",no appreciable effect on insulin
same,effect on insulin (general statement),"insulin release; in words, no dose stated",lacks the disadvantages of Octreotide such as inhibition of Insulin secretion; also recorded: no considerable effect on insulin
same,GH/Insulin,"insulin release; ratio of ID50 values, Table 4",">10,000"
same,toxicity signs,[4],No toxicity signs
same,inhibition at 1 µM,SSTR-4; 10^−6 M,5%
same,inhibition at 0.1 µM,SSTR-4; 10^−7 M,5%
same,inhibition at 0.01 µM,SSTR-4; 10^−8 M,0%
same,inhibition at 0.001 µM,SSTR-4; 10^−9 M,0%
same,inhibition at 0.0001 µM,SSTR-4; 10^−10 M,0%
same,inhibition at 10 pM,SSTR-4; 10^−11 M,0%
same,inhibition of Chromogranin A release,[5],inhibits Chromogranin A release; also recorded: significant anti-release effect; also recorded: equivalent potency with the native hormone Somatostatin
same,inhibition at 10 pM,SSTR-3,2%
same,inhibition at 0.0001 µM,SSTR-3,1%
same,inhibition at 0.001 µM,SSTR-3,1%
same,inhibition at 0.01 µM,SSTR-3,4%
same,inhibition at 0.1 µM,SSTR-3,50%
same,inhibition at 1 µM,SSTR-3,89%
same,metabolic bio-stability against degradation by enzymes,[6],considerable metabolic bio-stability against degradation by enzymes
